Experimental data from US6630310B1, “Assay for binding between carbohydrate and glycolipid” (Biopolymer Engineering Pharmaceutical, Inc., priority 1996, dated 2003).
“Also recorded” adds a separate entry of the source.

Experiments:
[1] = Specific binding of ^3H-PGG-Glucan to sphingolipids in the 96-well plate assay; design: ^3H-PGG-Glucan bound (specific binding): unit not given here; settings: for ^3H-PGG-Glucan bound (specific binding): LacCer of defined fatty acid and long chain base, 96-well plate; for 3H-PGG-Glucan Bound (specific binding): sphingolipid immobilized in 96-well plate, 37° C.; for specific binding to ^3H-underivatized, aqueous soluble β(1-3)-glucan (in words): immobilized on a polystyrene 96-well plate
Method: Lactosyl ceramide or the sample to be measured was suspended in ethanol. Aliquots as specified were added in triplicate to the wells of a 96-well plate and air dried. The following components were premixed, then 100 μL was added to each well: saline (10 μL) or unlabelled, underivatized, aqueous soluble β(1-3)-glucan (10 μL of a 10 mg/ml stock), ^3H-underivatized, aqueous soluble β(1-3) glucan (10 μL of a 10 μg/ml stock), and HBSS (80 μL). Plates were incubated at 37° C. for 1.5 to 2 hours, then supernatants were removed from each well and discarded. Wells were rinsed with HBSS (200 μL) and SOLVABLE™ (100 μL) was added. The plate was incubated at 60° C. for 5 minutes, then supernatants were removed and counted.

[2] = tested on: human leukocyte membranes; assay: ^3H-PGG-Glucan binding to pretreated human leukocyte membranes; settings: for effect of detergent pretreatment of membranes on specific binding (in words): membranes pretreated 5 minutes on ice (CHAPS 0.25%) (FIG. 9)
Method: Human leukocyte membranes were incubated in HBSS with or without 0.25% CHAPS for 5 minutes on ice, followed by centrifugation at 180,000×g, 4° C. for 45 minutes. Pellets were used in a binding assay with underivatized, aqueous soluble β(1-3)-glucan or dextran (avg. MW 71,000, Sigma Chemical Co., MO) as indicated at 1 mg/ml final concentration.
Human leukocyte membranes (500 μg protein) were incubated with sodium periodate at concentrations indicated in FIG. 12 (10 and 100 mM) for 30 minutes at room temperature, then centrifuged at 12,000×g for 10 minutes, rinsed and used in a binding assay (non-oil/sucrose; see FIG. 12). Protein-depleted membranes (derived from 1.87 mg human leukocyte membrane protein) were incubated in 0.1 M sodium periodate and treated as described above (FIG. 13).
An alternative procedure to that using the oil/sucrose gradient involved centrifuging 100 μl aliquots of the binding assay in microfuge tubes at 12,000×g, for five minutes, followed by rinsing the resultant pellet with HBSS. Pellets were then dissolved in SOLVABLE™ and radioactively determined as above.

[3] = tested on: receptor for underivatized, aqueous soluble β(1-3)-glucan on human leukocyte membranes; assay: Competition of ^3H-PGG-Glucan binding to human leukocyte membranes (oil/sucrose binding assay)
Method: Aminated glucan was prepared by reductive amination of curdlan and provided by Dr. Rolph Seljelid (University of Tromsφ, Tromsφ, Norway).
At the end of the incubation, 100 μl aliquots of reaction mixture were layered on top of a double layer density gradient consisting of 100 μl dibutyl phthalate (lower layer) and 100 μl 8% sucrose in PBS (upper layer) in 400 μl centrifuge tubes (Brinkman). The tubes were spun at 15,000×g for 4-5 minutes and the tips containing the membrane pellets were removed, incubated in 300 μl SOLVABLE™ (New England Nuclear, Boston, Mass.) overnight at 50° C. to dissolve the pellet, and then radioactivity determined by liquid scintillation counting. […] Alternatively, membranes were centrifuged directly in their incubation tubes at 15,000×g for 4-5 minutes at 37° C., the pellet washed with HBSS, then pellets solubilized and radioactivity determined by liquid scintillation counting.

[4] = Competition of ^3H-PGG-Glucan binding to lactosyl ceramide in 96-well plate assay (FIGS. 14, 15); design: species or system bovine; settings: FIGS. 14 and 15
Source text: FIG. 14 is a graph of the comparison of underivatized, aqueous soluble β(1-3)-glucan and single helix competition of ^3H-underivatized, aqueous soluble β(1-3)-glucan binding in three assay formats. Underivatized, aqueous soluble β(1-3)-glucan or single helix glucan was used at designated concentrations to compete for ^3H-underivatized, aqueous soluble β(1-3)-glucan binding to lactosyl ceramide (LacCer) in a 96-well plate (triangles), or to lactosyl ceramide in reconstituted membranes (squares), or to human leukocyte membranes (circles). Open symbols represent underivatized, aqueous soluble β(1-3) glucan, and closed symbols represent single helix. Maximum competition was assigned at the highest concentration of underivatized, aqueous soluble β(1-3)-glucan used as competitor in each type of assay.
FIG. 15 is a graphic illustration of data showing that underivatized, aqueous soluble β(1-3) glucan and high molecular weight underivatized, aqueous soluble β(1-3) glucan (Network) compete more effectively for ^3H-underivatized, aqueous soluble β(1-3)-glucan binding to lactosyl ceramide in a 96-well plate assay than do single helix or laminarin. […]
Lactosyl ceramide or the sample to be measured was suspended in ethanol. […] The plate was incubated at 60° C. for 5 minutes, then supernatants were removed and counted.

[5] = addition at 0.1 mg/ml, ^3H-PGG-Glucan binding to human leukocyte membranes

CCCCCCCCCCCCCCCCCCCCCCCC(=O)NC(CO[C@@H]1O[C@H](CO)[C@@H](O[C@@H]2O[C@H](CO)[C@H](O)[C@H](O)[C@H]2O)[C@H](O)[C@H]1O)C(O)CCCCCCCCCCCCCCC (mixture of isomers) [N-Lignoceroyl-DL-dihydrolacto-cerebroside]
^3H-PGG-Glucan bound (specific binding) [1]: 0.00

CCCCCCCCCCCCCCCC(=O)NC(CO[C@@H]1O[C@H](CO)[C@@H](O[C@@H]2O[C@H](CO)[C@H](O)[C@H](O)[C@H]2O)[C@H](O)[C@H]1O)C(O)CCCCCCCCCCCCCCC (mixture of isomers) [N-Palmitoyl-DL-dihydrolacto-cerebroside]
^3H-PGG-Glucan bound (specific binding) [1]: 0.00

CCCCCCCCCCCCCCCCCC(=O)NC(CO[C@@H]1O[C@H](CO)[C@@H](O[C@@H]2O[C@H](CO)[C@H](O)[C@H](O)[C@H]2O)[C@H](O)[C@H]1O)C(O)CCCCCCCCCCCCCCC (mixture of isomers) [N-Stearoyl-DL-dihydrolacto-cerebroside]
^3H-PGG-Glucan bound (specific binding) [1]: 0.00

C[C@H](CCC(=O)NCCC[N+](C)(C)CCCS(=O)(=O)[O-])[C@H]1CC[C@H]2[C@@H]3[C@H](O)C[C@@H]4C[C@H](O)CC[C@]4(C)[C@H]3C[C@H](O)[C@]12C [CHAPS]
effect of detergent pretreatment of membranes on specific binding (in words) [2]: enhancement of specific binding

O=C(O)CN(CCOCCOCCN(CC(=O)O)CC(=O)O)CC(=O)O [EGTA]
% Control Binding ([3]; addition at 5 mM): 87%

CCCCCCCCCCCCCC=CC(O)C(COC1OC(CO)C(OC2OC(CO)C(O)C(O)C2O)C(O)C1O)NC(=O)CCCCCCCCCCCCCCC (stereo not drawn) [LacCer (HLM) C16:0]
^3H-PGG-Glucan bound (specific binding) [1]: 3.31

CCCCCCCCCCCCC/C=C/[C@@H](O)[C@H](CO[C@@H]1O[C@H](CO)[C@@H](O[C@@H]2O[C@H](CO)[C@H](O)[C@H](O)[C@H]2O)[C@H](O)[C@H]1O)NC(=O)CCCCCCCCCCCCCCCCC [LacCer (HLM) C18:0]
^3H-PGG-Glucan bound (specific binding) [1]: 1.93

CCCCCCCCCCCCCC=CC(O)C(COC1OC(CO)C(OC2OC(CO)C(O)C(O)C2O)C(O)C1O)NC(=O)CCCCCCCCCCCCCCCCCCCCC (stereo not drawn) [LacCer (HLM) C22:0]
^3H-PGG-Glucan bound (specific binding) [1]: 3.57

CCCCCCCCCCCCC/C=C/[C@@H](O)[C@H](CO[C@@H]1O[C@H](CO)[C@@H](O[C@@H]2O[C@H](CO)[C@H](O)[C@H](O)[C@H]2O)[C@H](O)[C@H]1O)NC(=O)CCCCCCCCCCCCCCCCCCCCCCC [LacCer (HLM) C24:0]
^3H-PGG-Glucan bound (specific binding) [1]: 3.14

CCCCCCCCCCCCC/C=C/[C@@H](O)[C@@H](N)CO [Sphingosine]
3H-PGG-Glucan Bound (specific binding) [1]: 0.02 ± 0.00 ng/μg sphingolipid

OC[C@H]1O[C@@H](O[C@@H]2[C@@H](O)[C@H](O[C@@H]3[C@@H](O)[C@H](O[C@@H]4[C@@H](O)[C@H](O[C@@H]5[C@@H](O)[C@H](O[C@@H]6[C@@H](O)[C@H](O[C@@H]7[C@@H](O)[C@H](O)O[C@H](CO)[C@H]7O)O[C@H](CO)[C@H]6O)O[C@H](CO)[C@H]5O)O[C@H](CO)[C@H]4O)O[C@H](CO)[C@H]3O)O[C@H](CO)[C@H]2O)[C@H](O)[C@@H](O)[C@@H]1O [laminariheptose]
inhibition of radioactively labeled underivatized, aqueous soluble β(1-3)-glucan binding to human leukocyte membranes (in words) [3]: no effect

CCCCCCCCO[C@@H]1O[C@H](CO)[C@@H](O)[C@H](O)[C@H]1O [octylglucoside]
effect of detergent pretreatment of membranes on specific binding (in words) [2]: enhancement of specific binding

[Na+].[O-][I+3]([O-])([O-])[O-] [sodium periodate]
effect of sodium periodate treatment of membranes on binding activity (in words) ([2]; 10 and 100 mM, 30 minutes at room temperature (FIGS. 12, 13)): decreased

Ceramides
3H-PGG-Glucan Bound (specific binding) [1]: 0.02 ± 0.01 ng/μg sphingolipid

Dextran
% Control Binding ([3]; addition at 1 mg/ml): 88%

Globoside
3H-PGG-Glucan Bound (specific binding) [1]: 0.00 ± 0.01 ng/μg sphingolipid

Glycogen
% Control Binding [3, 5]: 134%

Laminarin
inhibition of radioactively labeled underivatized, aqueous soluble β(1-3)-glucan binding to human leukocyte membranes (in words) [3]: do not inhibit; also recorded: not inhibited | % Control Binding ([3]; addition at 1 mg/ml): 83% | competition for ^3H-underivatized, aqueous soluble β(1-3)-glucan binding to LacCer in the 96-well plate assay (in words) [4]: does not compete efficiently

Lipopolysaccharide
% Control Binding [3, 5]: 89%

Mannan
% Control Binding ([3]; addition at 1 mg/ml): 88%

Sulfatides
3H-PGG-Glucan Bound (specific binding) [1]: 0.00 ± 0.01 ng/μg sphingolipid

galactosyl ceramides
specific binding to ^3H-underivatized, aqueous soluble β(1-3)-glucan (in words) [1]: significant specific binding

globotriaosyl ceramide [GlobotriaosylCer]
specific binding to ^3H-underivatized, aqueous soluble β(1-3)-glucan (in words) [1]: significant specific binding | 3H-PGG-Glucan Bound (specific binding) [1]: 0.84 ± 0.13 ng/μg sphingolipid

lactosyl ceramide
specific binding to ^3H-underivatized, aqueous soluble β(1-3)-glucan (in words) [1]: significant specific binding
